Source: publication PMC6917776, “Discovery of a chemical probe for PRDM9” (Nature Communications, 2019)
Where “and” joins values, the source holds several entries; their conditions need not be identical. Identical values can stand only once. Like-named read-outs stand apart in the source and are kept apart here.

Key:
[1] = target: T1, PRDM7 (Homo sapiens, UniProt Q9NQW5); assay: PRDM7 methyltransferase activity assay (3H-SAM scintillation proximity assay); assay type: biochemical; details: for activity at 50 µM: 50 µM compound
T1 sequence (Q9NQW5 1-492): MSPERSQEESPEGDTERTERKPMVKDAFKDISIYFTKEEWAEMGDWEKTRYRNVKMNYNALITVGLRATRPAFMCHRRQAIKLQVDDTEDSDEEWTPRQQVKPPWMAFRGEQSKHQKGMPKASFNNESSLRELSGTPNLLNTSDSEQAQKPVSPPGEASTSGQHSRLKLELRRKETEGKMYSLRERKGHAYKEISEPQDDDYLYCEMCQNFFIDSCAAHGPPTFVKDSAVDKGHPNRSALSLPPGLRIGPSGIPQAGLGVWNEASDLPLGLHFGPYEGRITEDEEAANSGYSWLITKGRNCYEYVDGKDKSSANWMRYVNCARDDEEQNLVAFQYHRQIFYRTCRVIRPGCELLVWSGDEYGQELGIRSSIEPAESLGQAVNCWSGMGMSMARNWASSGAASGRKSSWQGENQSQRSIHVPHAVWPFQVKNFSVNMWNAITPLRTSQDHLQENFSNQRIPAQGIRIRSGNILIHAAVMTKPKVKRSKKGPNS
Procedure: Methyltransferase activity assays for PRDM9 (amino acids: 195–415) were performed by monitoring the incorporation of tritium-labeled methyl group from ^3H-SAM to H3 (1–25) peptide using scintillation proximity assay (SPA). The enzymatic reactions were performed at 23 °C with 30 min incubation in 20 mM Tris-HCl (pH 7.5), 5 mM DTT, 0.01% Triton X-100 and 1% DMSO containing 71 μM of SAM (5 μM of ^3H-SAM), 4 μM of biotinylated H3 (1–25) peptide and 5 nM of PRDM9. For PRDM7, reactions were performed at 23 °C with 90 min incubation in 20 mM BTP pH 9.0, 5 mM DTT, 0.01% Triton X-100 and 1% DMSO containing 900 μM of SAM (5 μM of ^3H-SAM), 4 μM of biotinylated H3 (1–25) peptide and 100 nM of enzyme. Compounds were titrated from 3 nM to 50 μM and from 200 nM to 200 μM for PRDM9 and PRDM7, respectively. To stop the reactions, 10 μL of 7.5 M guanidine hydrochloride was added to 10 μL of reaction mixture, followed by 60 μL of buffer (20 mM Tris, pH 8.0), mixed, and transferred to a 384-well streptavidin coated Flash-plate. After mixing, the mixtures in Flash-plate were incubated for 2 h, and the CPM counts were measured using TopCount plate reader. All enzymatic reactions were performed in triplicate, and IC50 values were determined by fitting the data to Four Parameter Logistic equation using the GraphPad Prism software.

[2] = tested on: NanoLuc-tagged PRDM9 (residues 135–285); assay: NanoLuciferase thermal shift assay (NALTSA) in HEK293T cells; assay type: cell-based, human; details: for Normalized_Signal: Fig. 5a, independent replicates
Procedure: Cells treated with 0.1% DMSO alone were used as a control.
Shown is the mean ± SEM of three biological replicates. Boxes indicate the mean values. P-values calculated using an unpaired Welch’s two-tailed t-test, *p-value = 0.017. Source data are provided as a Source Data file.
NALTSA assays were performed as previously described. Briefly, HEK293T cells were plated in 6-well plates at a density of 1.5 × 10^5 cells/mL. The following day, cells were transfected with 2 µg of C-terminally NanoLuc®-tagged PRDM9 (residues 135–285) with X-tremeGene HP DNA Transfection Reagent (Roche). Cells were incubated for 24 h, trypsinized and resuspended at 1.5 × 10^5 cells/mL in 1x PBS supplemented with protease inhibitors. Cell suspensions were incubated at 37 °C with 10 μM compound or 0.1% DMSO alone for 1 h. Sixty microliters of cells was dispensed per well of a 96-well PCR plate followed by heating across a temperature gradient for 3 min on a Mastercycler® thermal cycler (Eppendorf). After heating, samples were transferred to a 96-well white plastic plate (Corning) and Glo® Substrate (Promega) was added to each well at 1:1000 final dilution. NanoLuciferase signal was read at 450 nm (filter: 450 nm/BP 80 nm) on a CLARIOstar microplate reader (Mandel).

[3] = tested on: HEK293T cells; assay: Cell growth, IncuCyte ZOOM cell number; assay type: cell-based; details: for Cell growth (Cell#): technical replicates
Procedure: HEK293T or MCF7 cells were seeded on 96-well plates and the following day treated with compounds for indicated time. Cell number was determined with Vybrant® DyeCycle™ Green using IncuCyte™ ZOOM live cell imaging device (Essen Bioscence) and analyzed with IncuCyte™ ZOOM (2015A) software.
(top graphs) and MCF7 cells (bottom graph). Cells were treated with compounds for 2 and 4 days or 5 days in case of MCF7. Cell number was measured using IncuCyte™ ZOOM live cell imaging device. The results are MEAN +/- SEM, n=3 (technical replicates). Source data are provided as a Source Data file.
(1 picture or pasted object on this page, not shown here)

COc1cc(OC)cc(-c2noc(N3CCN(C)C4(CCN(c5ccnc(C)c5)CC4)C3)n2)c1 [MRK-740]
PRDM7-Activity %, single experiments ([1]; 0.195312 µM compound, 0.195312 µM): 104.6% and 100.9% | activity at 0.195312 µM ([1]; 0.195312 µM compound, read-out: PRDM7-Activity %, Average (n=3)): 103% | activity at 0.195312 µM ([1]; 0.195312 µM compound, read-out: PRDM7-Activity %, single experiments): 104% | PRDM7-Activity %, single experiments ([1]; 0.390625 µM compound, 0.390625 µM): 104.3% and 107.1% | activity at 0.390625 µM ([1]; 0.390625 µM compound, read-out: PRDM7-Activity %, Average (n=3)): 105% | activity at 0.390625 µM ([1]; 0.390625 µM compound, read-out: PRDM7-Activity %, single experiments): 103% | PRDM7-Activity %, single experiments ([1]; 0.78125 µM compound, 0.78125 µM): 95.5% and 104.5% | activity at 0.78125 µM ([1]; 0.78125 µM compound, read-out: PRDM7-Activity %, Average (n=3)): 99.4% | activity at 0.78125 µM ([1]; 0.78125 µM compound, read-out: PRDM7-Activity %, single experiments): 98.3% | PRDM7-Activity %, single experiments ([1]; 1.5625 µM compound, 1.5625 µM): 97.86% and 90.81% | activity at 1.5625 µM ([1]; 1.5625 µM compound, read-out: PRDM7-Activity %, Average (n=3)): 94.9% | activity at 1.5625 µM ([1]; 1.5625 µM compound, read-out: PRDM7-Activity %, single experiments): 96.1% | PRDM7-Activity %, single experiments ([1]; 3.125 µM compound, 3.125 µM): 99.32% and 89.67% | activity at 3.125 µM ([1]; 3.125 µM compound, read-out: PRDM7-Activity %, Average (n=3)): 95.4% | activity at 3.125 µM ([1]; 3.125 µM compound, read-out: PRDM7-Activity %, single experiments): 97.1% | PRDM7-Activity %, single experiments ([1]; 6.25 µM compound, 6.25 µM): 81.54% and 82.05% | activity at 6.25 µM ([1]; 6.25 µM compound, read-out: PRDM7-Activity %, Average (n=3)): 81.6% | activity at 6.25 µM ([1]; 6.25 µM compound, read-out: PRDM7-Activity %, single experiments): 81.2% | PRDM7-Activity %, single experiments ([1]; 12.5 µM compound, 12.5 µM): 70.89% and 77.38% | activity at 12.5 µM ([1]; 12.5 µM compound, read-out: PRDM7-Activity %, Average (n=3)): 74.1% | activity at 12.5 µM ([1]; 12.5 µM compound, read-out: PRDM7-Activity %, single experiments): 74% | PRDM7-Activity %, single experiments ([1]; 25 µM compound, 25 µM): 64.86% and 73.52% | activity at 25 µM ([1]; 25 µM compound, read-out: PRDM7-Activity %, Average (n=3)): 69.3% | activity at 25 µM ([1]; 25 µM compound, read-out: PRDM7-Activity %, single experiments): 69.4% | activity at 50 µM ([1]; read-out: PRDM7-Activity %, Average (n=3)): 46.3% | activity at 50 µM ([1]; read-out: PRDM7-Activity %, single experiments): 47.1% | PRDM7-Activity %, single experiments ([1]; 100 µM compound, 100 µM): 28% and 33.38% | activity at 100 µM ([1]; 100 µM compound, read-out: PRDM7-Activity %, Average (n=3)): 30% | activity at 100 µM ([1]; 100 µM compound, read-out: PRDM7-Activity %, single experiments): 28.6% | PRDM7-Activity %, single experiments ([1]; 200 µM compound, 200 µM): 12.96% and 18.48% | activity at 200 µM ([1]; 200 µM compound, read-out: PRDM7-Activity %, Average (n=3)): 15.8% | activity at 200 µM ([1]; 200 µM compound, read-out: PRDM7-Activity %, single experiments): 16.1% | IC50 ([1]; biotinylated H3 (1–25) peptide): 45 ± 7 µM | Tm of PRDM9 in cells (NALTSA) ([2]; 10 µM compound, 0.1% DMSO, 1 h, DMSO control Tm 52 ± 0.3 °C): 54 ± 0.2 °C | ∆Tm of PRDM9 in cells (NALTSA) ([2]; 10 µM compound, 1 h, versus DMSO): 2 °C | ∆Tm (°C) ([2]; Fig. 5b, replicates): 2.141 °C and 1.141 °C and 2.73 °C | Normalized_Signal ([2]; Temperature 41.9 °C): 1 | Normalized_Signal ([2]; Temperature 42.4 °C): 1.082 and 0.9671 and 1.026 | Normalized_Signal ([2]; Temperature 43.6 °C): 1.044 and 1.056 and 1.097 | Normalized_Signal ([2]; Temperature 45.5 °C): 1.058 and 1.067 and 0.973 | Normalized_Signal ([2]; Temperature 47.8 °C): 1.041 and 0.9815 and 0.9273 | Normalized_Signal ([2]; Temperature 50.4 °C): 0.9323 and 0.8369 and 0.6881 | Normalized_Signal ([2]; Temperature 53.1 °C): 0.6552 and 0.5708 and 0.5431 | Normalized_Signal ([2]; Temperature 55.8 °C): 0.4561 and 0.4452 and 0.3801 | Normalized_Signal ([2]; Temperature 58.1 °C): 0.3081 and 0.2709 and 0.2289 | Normalized_Signal ([2]; Temperature 60.1 °C): 0.1968 and 0.1844 and 0.1466 | Normalized_Signal ([2]; Temperature 61.5 °C): 0.1518 and 0.1586 and 0.1205 | Normalized_Signal ([2]; Temperature 62.1 °C): 0.1417 and 0.1648 and 0.1053 | HEK293T cell growth, toxicity (in words) ([3]; 10 µM, 24 h of treatment): some toxicity | HEK293T cytotoxicity (in words) ([3]; 10 µM, 4 days of treatment): cytotoxicity was observed | Cell growth (Cell#) ([3]; HEK293, 2 day treatement, 1 µM): 84.8973 % control and 124.131 % control and 116.53 % control | Cell growth (Cell#) ([3]; HEK293, 2 day treatement, 3 µM): 73.843 % control and 124.215 % control and 124.008 % control | Cell growth (Cell#) ([3]; HEK293, 2 day treatement, 5 µM): 68.7811 % control and 110.358 % control and 122.96 % control | Cell growth (Cell#) ([3]; HEK293, 2 day treatement, 10 µM): 55.0249 % control and 90.6823 % control and 84.1686 % control | Cell growth (Cell#) ([3]; HEK293, 4 day treatement, 0.3 µM): 115.326 % control and 111.309 % control and 103.491 % control | Cell growth (Cell#) ([3]; HEK293, 4 day treatement, 1 µM): 115.93 % control and 116.134 % control and 111.504 % control | Cell growth (Cell#) ([3]; HEK293, 4 day treatement, 3 µM): 115.346 % control and 109.669 % control and 118.771 % control | Cell growth (Cell#) ([3]; HEK293, 4 day treatement, 10 µM): 47.3939 % control and 45.1607 % control and 39.6851 % control
